Results as given in PubChem BioAssay (NCI).
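These data come from cells grown in 96-well plates and exposed to compound for 48 hours at five concentrations. GI50 is the concentration that inhibits growth by half. TGI: total growth inhibition.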

Experiments:
Assay in all cases: NCI anticancer screen, dose series, 48 h
[1] = system: NCI-H226 lung
[2] = system: MALME-3M melanoma
[3] = system: MDA-MB-435
[4] = system: SW-620 colon
[5] = system: 786-0 renal
[6] = system: NCI-H23 lung
[7] = system: OVCAR-3 ovarian
[8] = system: MDA-N
[9] = system: TK-10 renal
[10] = system: COLO 205 colon
[11] = system: A549 NSCLC
[12] = system: SF-268 CNS
[13] = system: SNB-19 CNS
[14] = system: BT-549 breast
[15] = system: HL-60(TB) leukemia
[16] = system: MOLT-4 leukemia
[17] = system: HCT-116 colon
[18] = system: NCI-H522 lung
[19] = system: UO-31 renal
[20] = system: IGROV1 ovarian
[21] = system: SF-295 CNS
[22] = system: KM12 colon
[23] = system: HOP-92 NSCLC
[24] = system: HOP-62 NSCLC
[25] = system: OVCAR-5 ovarian
[26] = system: A498 renal
[27] = system: HS 578T breast
[28] = system: PC-3 prostate
[29] = system: UACC-62 melanoma
[30] = system: U251 CNS
[31] = system: K-562 leukemia
[32] = system: HT29 colon
[33] = system: M19-MEL melanoma
[34] = system: SR leukemia
[35] = system: RPMI-8226 leukemia
[36] = system: HCC-2998 colon
[37] = system: HCT-15 colon
[38] = system: M14 melanoma
[39] = system: HOP-18 NSCLC
[40] = system: MDA-MB-231 breast
[41] = system: SK-MEL-5 melanoma
[42] = system: SNB-75 CNS
[43] = system: UACC-257 melanoma
[44] = system: SF-539 CNS
[45] = system: NCI-H460 lung
[46] = system: OVCAR-8 ovarian
[47] = system: CCRF-CEM leukemia
[48] = system: DU-145 prostate
[49] = system: EKVX NSCLC
[50] = system: SN12C renal
[51] = system: DLD-1 colon
[52] = system: MCF7 breast
[53] = system: SK-MEL-28 melanoma
[54] = system: ACHN renal
[55] = system: OVCAR-4 ovarian
[56] = system: SK-OV-3 ovarian
[57] = system: LXFL 529 NSCLC
[58] = system: NCI/ADR-RES ovarian
[59] = system: KM20L2 colon
[60] = system: SK-MEL-2 melanoma
[61] = system: SNB-78 CNS
[62] = system: RXF 393 renal
[63] = system: DMS 273 small cell lung
[64] = system: LOX IMVI melanoma

Work on `COc1ccc(/C=N/N/C(O)=c2/sc(=C(C#N)C#N)n(-c3ccccc3)c2=N)cc1` yielded a TGI [1] of over 100 µM, a TGI [2] of over 100 µM and a TGI [3] of over 100 µM. It also gave a TGI [4] of over 100 µM, a TGI [5] of over 100 µM and a TGI [6] of over 100 µM. The TGI [7] was over 100 µM, the TGI [8] was over 100 µM and the TGI [9] was over 100 µM. For the same molecule, the TGI [10] was over 100 µM, the TGI [11] was over 100 µM and the TGI [12] was over 100 µM. For the same molecule, the TGI [13] was over 100 µM, the TGI [14] was over 100 µM and the TGI [15] was over 100 µM. The TGI [16] was over 100 µM, the TGI [17] was over 100 µM and the TGI [18] was over 100 µM. For the same molecule, the TGI [19] was over 100 µM, the TGI [20] was over 100 µM and the TGI [21] was over 70.5 µM. The TGI [22] was over 100 µM, the TGI [23] was over 70.8 µM and the TGI [24] was over 94 µM. The TGI [25] was over 100 µM, the TGI [26] was over 100 µM and the TGI [27] was over 100 µM. For the same molecule, the TGI [28] was over 100 µM, the TGI [29] was over 100 µM and the TGI [30] was over 100 µM. It also gave a TGI [31] of over 100 µM, a TGI [32] of over 100 µM and a TGI [33] of over 100 µM. It also gave a TGI [34] of over 100 µM, a TGI [35] of over 100 µM and a TGI [36] of over 100 µM. For the same molecule, the TGI [37] was over 100 µM, the TGI [38] was over 100 µM and the TGI [39] was over 100 µM. For the same molecule, the TGI [40] was over 100 µM, the TGI [41] was over 100 µM and the TGI [42] was 38.3 µM. It also gave a TGI [43] of over 100 µM, a TGI [44] of over 88.6 µM and a TGI [45] of over 100 µM. The TGI [46] was over 100 µM, the TGI [47] was over 100 µM and the TGI [48] was over 100 µM. The TGI [49] was over 100 µM, the TGI [50] was over 100 µM and the TGI [51] was over 100 µM. For the same molecule, the TGI [52] was over 100 µM, the TGI [53] was over 100 µM and the TGI [54] was over 100 µM. It also gave a TGI [55] of over 100 µM, a TGI [56] of over 100 µM and a TGI [57] of over 100 µM. The TGI [58] was over 100 µM.
`C[CH2][Sn]([CH2]C)([O]C(=O)c1c(F)cccc1F)[O][Sn]([CH2]C)([CH2]C)[O]C(=O)c1c(F)cccc1F` gave a GI50 [1] of 22 µM, a TGI [1] of 36.7 µM and a GI50 [2] of 14.9 µM. For the same molecule, the TGI [2] was 28.8 µM, the GI50 [4] was 16.3 µM and the TGI [4] was 29.9 µM. The GI50 [5] was 16 µM, the TGI [5] was 29.7 µM and the GI50 [59] was 26.7 µM. For the same molecule, the TGI [59] was 68.8 µM, the GI50 [6] was 15.9 µM and the TGI [6] was 29.3 µM. The GI50 [7] was 25.9 µM, the TGI [7] was 78.1 µM and the GI50 [9] was 19.2 µM. It also gave a TGI [9] of 33.3 µM, a GI50 [10] of 12.6 µM and a TGI [10] of 25.1 µM. The GI50 [60] was 14.4 µM, the TGI [60] was 27.7 µM and the GI50 [11] was over 100 µM. The TGI [11] was over 100 µM, the GI50 [61] was 15.8 µM and the TGI [61] was 32.4 µM. For the same molecule, the GI50 [12] was 15.3 µM, the TGI [12] was 28.6 µM and the GI50 [13] was 17.1 µM. The TGI [13] was 30.8 µM, the GI50 [15] was 26.5 µM and the TGI [15] was 76.7 µM. The GI50 [16] was 23.4 µM, the TGI [16] was 88.3 µM and the GI50 [17] was 19 µM. For the same molecule, the TGI [17] was 34 µM, the GI50 [18] was 1.1 µM and the TGI [18] was 2.36 µM. The GI50 [19] was 36 µM, the TGI [19] was over 100 µM and the GI50 [20] was 69 µM. It also gave a TGI [20] of over 100 µM, a GI50 [21] of 20.1 µM and a TGI [21] of 34.5 µM. For the same molecule, the GI50 [22] was over 100 µM, the TGI [22] was over 100 µM and the GI50 [23] was 18.8 µM. The TGI [23] was 32.9 µM, the GI50 [24] was 20.8 µM and the TGI [24] was 36.9 µM. For the same molecule, the GI50 [25] was 17.9 µM, the TGI [25] was 31.8 µM and the GI50 [26] was 15 µM. For the same molecule, the TGI [26] was 28.3 µM, the GI50 [29] was 17.6 µM and the TGI [29] was 31.4 µM. For the same molecule, the GI50 [30] was 17.4 µM, the TGI [30] was 31.2 µM and the GI50 [31] was 8.61 µM. The TGI [31] was 37.5 µM, the GI50 [32] was 19.8 µM and the TGI [32] was 42.2 µM. The GI50 [62] was 13.7 µM, the TGI [62] was 26.6 µM and the GI50 [33] was 16.3 µM. It also gave a TGI [33] of 30.9 µM, a GI50 [34] of 26.6 µM and a TGI [34] of over 100 µM. For the same molecule, the GI50 [63] was 18.6 µM, the TGI [63] was 35.2 µM and the GI50 [36] was 42.8 µM. The TGI [36] was over 100 µM, the GI50 [37] was 17.9 µM and the TGI [37] was 32.5 µM. For the same molecule, the GI50 [38] was 18.1 µM, the TGI [38] was 32 µM and the GI50 [39] was 22.6 µM. For the same molecule, the TGI [39] was 37.1 µM, the GI50 [41] was 18.2 µM and the TGI [41] was 32.3 µM. For the same molecule, the GI50 [42] was 16.2 µM, the TGI [42] was 29.7 µM and the GI50 [43] was 16.5 µM. It also gave a TGI [43] of 30.2 µM, a GI50 [44] of 14.9 µM and a TGI [44] of 28.1 µM. For the same molecule, the GI50 [45] was 20 µM, the TGI [45] was 40.6 µM and the GI50 [46] was 17.2 µM. It also gave a TGI [46] of 30.9 µM, a GI50 [47] of 3.85 µM and a TGI [47] of 17.1 µM. The GI50 [49] was 16.8 µM, the TGI [49] was 30.6 µM and the GI50 [50] was 16 µM. It also gave a TGI [50] of 29.5 µM, a GI50 [64] of 16.1 µM and a TGI [64] of 29.9 µM. It also gave a GI50 [53] of 15.6 µM, a TGI [53] of 29 µM and a GI50 [54] of 19.1 µM. It also gave a TGI [54] of 33.2 µM, a GI50 [55] of 18.8 µM and a TGI [55] of 33 µM. It also gave a GI50 [56] of 41.3 µM, a TGI [56] of over 100 µM and a GI50 [57] of 5.44 µM. For the same molecule, the TGI [57] was 18.4 µM.
